Experimental findings from patent US20100093811A1 (priority 2007, published 2010) are described below.

The structures appear in SMILES notation. Like-named read-outs stand apart in the source and are kept apart here.

The target of test [1] is wild-type HIV-1 protease (Human immunodeficiency virus type 1 group M subtype B, UniProt P04585). Put plainly: Assay for inhibition of microbial expressed HIV protease. It is filed as biochemical. As to conditions: wild-type HIV-1 protease expressed in E. coli, peptide substrate, pH 5.5; read-out: Enzyme Inhibition - IC50. How it is done:
Assay for Inhibition of Microbial Expressed HIV Protease
Inhibition studies of the reaction of the protease (which was expressed in Eschericia coli) with a peptide substrate [Val-Ser-Gln-Asn-(betanapthyl)Ala-Pro-Ile-Val]. The inhibitor is first preincubated with the enzyme in assay buffer (50 mM sodium acetate, pH 5.5, 100 mM NaCl, and 0.1% BSA) for 30 minutes at room temperature. Substrate is added to 440 micromolar in a total volume of 80 microliters containing 5 picomolar HIV-1 protease, and the reaction is incubated for 1 hour at 30° C. The reaction is quenched by addition of 120 microliters of 10% phosphoric acid, and product formation is determined after separation of product and substrate on a Vydac C18 column connected to an Alliance high performance liquid chromatography system (Waters Corporation). The extent of inhibition of the reaction is determined from the peak area of the products.

Test [2] concerns acute HIV infection of T-lymphoid cells. Put plainly: Assay for inhibition of HIV replication (spread assay). In kind it is cell-based, HIV-1. The protocol: • Assay for Inhibition of HIV Replication
Assays for the inhibition of acute HIV infection of T-lymphoid cells were conducted in accordance with Vacca, J. P. et al., Proc. Natl. Acad. Sci. USA 1994, 91: 4096.

Setting [3] is: Human immunodeficiency virus 1, T-lymphoid, read-out: Spread - IC95.
Setting [4] is: inhibition of HIV-1 replication, 10% FBS, read-out: Spread - IC95.

A word on the IC50: it is the concentration at which inhibition is half-maximal. A word on the IC95: it is the concentration needed for an effect of 95%. In the case of `CC(C)CCN([C@@H](CCCCNC(=O)[C@@H](N)C(c1ccccc1)c1ccccc1)C(C)O)S(=O)(=O)c1ccc(N)cc1` (mixture of isomers) [Example A1, (2S)-2-amino-N-{5-[[(4-aminophenyl)sulfonyl]-(3-methylbutyl)amino]-6-hydroxyheptyl}-3,3-diphenylpropanamide], the IC50 in test [1] was found to be 0.43 nM. Further, in test [2] (setting [3]), the IC95 turned out to be 140 nM.

Regarding `CCC(CCC[C@@H](CO)N(CCC(C)C)S(=O)(=O)c1ccc(N)cc1)NC(=O)[C@H](C(c1ccccc1)c1ccccc1)N(C)C(=O)OC` (mixture of isomers) [Example F12, N{(5S)-5-[[(4-aminophenyl)sulfonyl](3-methylbutyl)amino]-1-ethyl-6-hydroxyhexyl}-Nα-(methoxycarbonyl)-Nα-methyl-β-phenyl-L-phenylalaninamide], the half-maximal inhibitory concentration (IC50) in test [1] was 2.11 nM. In addition, the IC95 in test [2] (setting [3]) came out at 325 nM.

`COC(=O)N[C@H](C(=O)N[C@H](C)CCC[C@@H](CO)N(CCC(C)C)S(=O)(=O)c1ccc(N)cc1)C(c1ccccc1)c1ccccc1` (single isomer, unassigned) [D1(S)]: the IC50 in test [1] turned out to be 0.008 nM. Further, in test [2] (setting [3]), the IC95 was determined as 7 nM.

`COC(=O)N[C@H](C(=O)NC(CO)CCCC(CO)N(CCC(C)C)S(=O)(=O)c1ccc(N)cc1)C(c1ccccc1)c1ccccc1` (single isomer, unassigned) [Example M1-7A, N-[(1R or 1S,5R or 5S)-5-[[(4-aminophenyl)sulfonyl](3-methylbutyl)amino]-6-hydroxy-1-(hydroxymethyl)hexyl]-Nα-(methoxycarbonyl)-β-phenyl-L-phenylalaninamide]: the IC50 in test [1] was found to be 0.349 nM. The IC95 in test [2] (setting [3]) turned out to be 302 nM.

Consider `COC(=O)N[C@H](C(=O)NC(CO)CCCC(CO)N(CCC(C)C)S(=O)(=O)c1ccc(N)cc1)C(c1ccccc1)c1ccccc1` (single isomer, unassigned) [Example M1-7B, N-[(1R or 1S, 5R or 5S)-5-[[(4-aminophenyl)sulfonyl](3-methylbutyl)amino]-6-hydroxy-1-(hydroxymethyl)hexyl]-Nα-(methoxycarbonyl)-β-phenyl-L-phenylalaninamide], for which the IC50 in test [1] stood at 0.013 nM. For the same molecule, the IC95 in test [2] (setting [4]) was determined as 230 nM.

As to `COC(=O)N[C@H](C(=O)N[C@@H](C)CCC[C@@H](CO)N(CCC(C)C)S(=O)(=O)c1ccc(N)cc1)C(c1ccccc1)c1ccccc1` [D1(R), N-{(1S,5S)-5-[[(4-aminohenyl)sulfonyl](3-methylbutyl)amino]-6-hydroxy-1-methylhexyl}-Nα-(methoxycarbonyl)-β-phenyl-L-phenylalaninamide], in test [1], the IC50 was found to be 0.386 nM. Also, in test [2] (setting [4]), the IC95 is on record as 98 nM.

Take `COC(=O)N[C@H](C(=O)NCCCC[C@@H](CN)N(CCC(C)C)S(=O)(=O)c1ccc(N)cc1)C(c1ccccc1)c1ccccc1` [Example A2, Methyl [(1S)-2-({6-amino-5-[[(4-aminophenyl)sulfonyl](3-methylbutyl)amino]-hexyl)amino)-1-(diphenylmethyl)-2-oxoethyl]carbamate]: the IC50 in test [1] came to 5 nM. Moreover, the IC95 in test [2] (setting [3]) was 252 nM.

In the case of `Cc1ccc(S(=O)(=O)N(CCC(C)C)[C@H](CO)CC(C)CCNC(=O)[C@@H](N)C(c2ccccc2)c2ccccc2)cc1` (stereo partly drawn) [Example B1, (2S)-2-amino-N-((5S)-6-hydroxy-3-methyl-5-{(3-methylbutyl)[(4-methylphenyl)-sulfonyl]amino}hexyl)-3,3-diphenylpropanamide], the IC50 in test [1] was found to be 0.51 nM. Further, the IC95 in test [2] (setting [3]) worked out at 500 nM.

For `COC(=O)N[C@H](C(=O)NCCC(C)C[C@@H](CO)N(CCC(C)C)S(=O)(=O)c1ccc(C)cc1)C(c1ccccc1)c1ccccc1` (stereo partly shown) [Example B2], the IC50 in test [1] was determined as 0.52 nM. The IC95 in test [2] (setting [4]) is reported as 368 nM.

`CC[C@@H](CCC[C@@H](CO)N(CCC(C)C)S(=O)(=O)c1ccc(N)cc1)NC(=O)[C@@H](NC(=O)OC)C(c1ccccc1)c1ccccc1` [Example D2]: the IC50 in test [1] is 0.016 nM. Also, in test [2] (Human immunodeficiency virus 1, T-lymphoid, read-out: Spread - IC95 (nM)), the concentration for an effect of 95% (IC95) is 10 nM.

As for `CC[C@@H](CCC[C@@H](CO)N(CCC(C)C)S(=O)(=O)c1ccc(N)c(F)c1)NC(=O)[C@@H](NC(=O)OC)C(c1ccccc1)c1ccccc1` [Example D3, N-{(1S,5S)-5-[[(4-amino-3-fluorophenyl)sulfonyl](3-methylbutyl)amino]-1-ethyl-6-hydroxyhexyl}-Nα-(methoxycarbonyl)-b-phenyl-L-phenylalaninamide], the IC50 in test [1] turned out to be 0.054 nM. The IC95 in test [2] (setting [3]) came out at 12 nM.

On to `COC(=O)N[C@@H](Cc1ccccc1Cl)C(=O)N[C@@H](C)CCC[C@@H](CN)N(CCC(C)C)S(=O)(=O)c1ccc(N)cc1` [Example D4, N-{(1S,5S)-6-amino-5-[[(4-aminophenyl)sulfonyl](3-methylbutyl)amino]-1-methylhexyl}-2-chloro-Nα-(methoxycarbonyl)-L-phenylalaninamide], for which, in test [1], the IC50 is greater than 3 nM. The IC95 in test [2] (setting [3]) was determined as 270 nM.

Take `COC(=O)N[C@H](C(=O)N[C@@H](C)CCC[C@@H](CO)N(CCC(C)C)S(=O)(=O)c1ccc2ncsc2c1)C(c1ccccc1)c1ccccc1` [Example D5, N-{(1S,5S)-5-[(1,3-benzothiazol-6-ylsulfonyl)(3-methylbutyl)amino]-6-hydroxy-1-methylhexyl}-Nα-(methoxycarbonyl)-β-phenyl-L-phenylalaninamide]: the IC50 in test [1] came out at 0.042 nM. In addition, the IC95 in test [2] (setting [3]) stood at 9 nM.

Turning to `CCC[C@@H](CCC[C@@H](CO)N(CCC(C)C)S(=O)(=O)c1ccc(N)cc1)NC(=O)[C@@H](NC(=O)OC)C(c1ccccc1)c1ccccc1` [Example D6, N-{(1S,5S)-5-[[(4-aminophenyl)sulfonyl](3-methylbutyl)amino]-6-hydroxy-1-propylhexyl}-Nα-(methoxycarbonyl)-β-phenyl-L-phenylalaninamide], the IC50 in test [1] stood at 0.106 nM. Also, in test [2] (setting [3]), the IC95 is 56 nM.

For `COC(=O)N[C@@H](Cc1ccccc1Cl)C(=O)N[C@@H](C)CCC[C@@H](CO)N(CCC(C)C)S(=O)(=O)c1ccc(N)cc1` [Example D7, N-{(1S,5S)-5-[[(4-aminophenyl)sulfonyl](3-methylbutyl)amino]-6-hydroxy-1-methylhexyl}-2-chloro-Nα-(methoxycarbonyl)-L-phenylalaninamide], the IC50 in test [1] is 0.064 nM. In test [2] (setting [3]), the IC95 was found to be 19 nM.

With `COC(=O)N[C@@H](Cc1ccccc1Cl)C(=O)N[C@@H](C)CCC[C@@H](CO)N(CC(C)C)S(=O)(=O)c1ccc(N)cc1` [Example D8, N-{(1S,5S)-5-[[(4-aminophenyl)sulfonyl](isobutyl)amino]-6-hydroxy-1-methylhexyl}-2-chloro-Nα-(methoxycarbonyl)-L-phenylalaninamide], the IC50 in test [1] turned out to be 0.327 nM. In addition, the IC95 in test [2] (setting [3]) worked out at 46 nM.

For `COC(=O)N[C@H](C(=O)N[C@@H](C)CCC[C@@H](CO)N(CC(C)C)S(=O)(=O)c1ccc(N)cc1)C(c1ccccc1)c1ccccc1` [Example D9, N-{(1S,5S)-5-[[(4-aminophenyl)sulfonyl](isobutyl)amino]-6-hydroxy-1-methylhexyl}-Nα-(methoxycarbonyl)-β-phenyl-L-phenylalaninamide], the IC50 in test [1] came out at 0.035 nM. In addition, the IC95 in test [2] (setting [3]) was 8 nM.

In the case of `COC(=O)N[C@H](C(=O)N[C@H](CCC[C@@H](CO)N(CCC(C)C)S(=O)(=O)c1ccc(N)cc1)C(C)C)C(c1ccccc1)c1ccccc1` [Example D10, N-{(1R,5S)-5-[[(4-aminophenyl)sulfonyl](3-methylbutyl)amino]-6-hydroxy-1-isopropylhexyl}-Nα-(methoxycarbonyl)-β-phenyl-L-phenylalaninamide], the IC50 in test [1] stood at 0.099 nM. The IC95 in test [2] (setting [3]) was 37 nM.

Regarding `CC[C@@H](CCC[C@@H](CO)N(CC(C)C)S(=O)(=O)c1ccc(N)cc1)NC(=O)[C@@H](NC(=O)OC)C(c1ccccc1)c1ccccc1` [Example D11, N-{(1S,5S)-5-[[(4-aminophenyl)sulfonyl](isobutyl)amino]-1-ethyl-6-hydroxyhexyl}-Nα-(methoxycarbonyl)-β-phenyl-L-phenylalaninamide], in test [1], the IC50 was 0.109 nM. In addition, in test [2] (setting [3]), the IC95 is 18 nM.

Turning to `COC(=O)N[C@H](C(=O)N[C@@H](C)CCC[C@@H](CO)N(CCC(C)C)S(=O)(=O)c1ccc(N)c(F)c1)C(c1ccccc1)c1ccccc1` [Example D12, N-{(1S,5S)-5-[[(4-amino-3-fluorophenyl)sulfonyl](3-methylbutyl)amino]-6-hydroxy-1-methylhexyl}-Nα-(methoxycarbonyl)-β-phenyl-L-phenylalaninamide], the IC50 in test [1] was determined as 0.012 nM. In addition, the IC95 in test [2] (setting [3]) came to 6 nM.

With `CCC[C@@H](CCC[C@@H](CO)N(CCCF)S(=O)(=O)c1ccc(N)cc1)NC(=O)[C@@H](NC(=O)OC)C(c1ccccc1)c1ccccc1` [Example D13, N-{(1S,5S)-5-[[(4-aminophenyl)sulfonyl](3-fluoropropyl)amino]-6-hydroxy-1-propylhexyl}-Nα-(methoxycarbonyl)-β-phenyl-L-phenylalaninamide], the IC50 in test [1] was 0.867 nM. Besides, the IC95 in test [2] (setting [3]) was 213 nM.

As for `COC(=O)N[C@H](C(=O)N[C@@H](C)CCC[C@@H](CO)N(C(C)C)S(=O)(=O)c1ccc(N)cc1)C(c1ccccc1)c1ccccc1` [Example F1, N-{(1S,5S)-5-[[(4-aminophenyl)sulfonyl](isopropyl)amino]-6-hydroxy-1-methylhexyl}-Nα-(methoxycarbonyl)-β-phenyl-L-phenylalaninamide], in test [2] (setting [3]), the IC95 was 32 nM.
